What was measured:
FANCD2 ubiquitination = FANCD2 ubiquitination by Western blotting; assay type: cell-based, human; conditions: two FANCA-deficient lymphoblastoid cell lines
Experimental: To disregard a direct effect on FA/BRCA pathway, FANCD2 ubiquitination was analyzed by Western blotting in two different FANCA-deficient lymphoblastoid cell lines.

Fanca-deficient mice [1] = test: Chronic treatment of Fanca-deficient mice: survival and general health; assay type: in vivo
Experimental: (§1) Fanca-deficient mice strain was Fanca^tm1Faw and genetic background 129P2/OlaHsd * FVB with exon deletion 4-7 (c.f. Cheng NC et al., "Mice with a targeted disruption of the Fanconi anemia homolog Fanca", Hum Mol Genet. 2000, vol. 9(12), pp. 1805-11). 30 male mice were randomized by age (12 to 16 weeks) and weight (25 grams on average) in three experimental groups (water, NAC and AMB).
(§2) NAC (40mM) (used for comparative purposes) and Ambroxol (1mM) were administered in drinking water (filtered and UV irradiated) ad libitum. To monitor MN on blood cells (erythrocytes and reticulocytes) mice were tail bleeded on weeks 1, 2, 4, 6, 8, 12, 16 and 24. Hematological parameters and blood counts were also evaluated. At the end of the study mice were euthanized and bone marrow, blood and organ samples (spleen, lung, and liver) collected.

Fanca-deficient mice [2] = test: Telomere fluorescence analysis on spleen tissue sections by Q-FISH; assay type: in vivo; conditions: for telomere length: compared with control treatment (water)
Experimental: as §1, §2
Quantitative telomere fluorescence in situ hybridization (Q-FISH) was performed directly on spleen tissue sections as previously described (c.f. Flores I et al., "The longest telomeres: a general signature of adult stem cell compartments", Genes Dev. 2008; vol. 22(5), pp. 654-67). Spleen tissue was hybridized with the PNA telomeric oligonucleotide (CCCTTA)3 labeled with Cy3 (PE Biosystems). After that, digital images were acquired.
Confocal microscopy was performed at room temperature with a laser-scanning microscope (TSC SP5) using a Plan Apo 63Å-1.40 NA oil immersion objective (HCX). Maximal projection of z-stack images generated using advanced fluorescence software (LAS) was analyzed with Definiens XD software package. DAPI images were used to detect telomeric signals inside each nucleus. To study telomere length, average intensity of individual telomeres of around 940 nuclei per mouse was analyzed. To study short telomeres, intensity of around 31,000 individual telomeres was studied per mouse. A total of 7 mice were studied in the control group and 10 mice in NAC or Ambroxol groups.

[3] = tested on: FANCA-deficient lymphoblastoid cell lines; test: FCM assay: cell cycle analysis (cells in G2/M phase); assay type: cell-based, human; conditions: three FANCA-deficient cell lines; basal around 20% without treatment
Fanca-deficient mice [4] = test: Histopathology study of spleen, liver and lung; assay type: in vivo
Experimental: as §1, §2
A total of 7 mice were studied in the placebo (water) group and 10 mice in the NAC or Ambroxol treated groups. Samples (spleen, liver and lung) were fixed overnight in 10 % neutral buffered formalin, embedded in paraffin, sectioned in 3 µm thick and dried. Slides were dewaxed and re-hydrated through a series of graded ethanol until water and finally stained with hematoxilin-eosin (H-E). Photographs were taken using an Olympus DP73 digital camera and a Vanox AHBS3 Olympus microscope.

[5] = affected mice/mice studied, H2O 0/7
[6] = affected mice/mice studied, H2O 1/7
[7] = affected mice/mice studied, H2O 2/7

Nc1c(Br)cc(Br)cc1CN[C@H]1CC[C@H](O)CC1 [Ambroxol, trans-4-(2-amino-3,5-dibromobenzylamino)cyclohexanol]
FANCD2 ubiquitination (FANCD2 ubiquitination): unable to restore FANCD2 ubiquitination | survival at the end of the experiment (Fanca-deficient mice [1]; 1 year, Ambroxol 1mM in drinking water ad libitum, 40 % of control mice alive): All mice from the Ambroxol group were alive and healthy | general health condition and survival (Fanca-deficient mice [1]; related to untreated mice): improvement | improvement in telomere's length with respect to NAC (Fanca-deficient mice [2]; one year of treatment): about 5 fold | telomere length (Fanca-deficient mice [2]; one year of treatment): significant increase | length of short telomeres (Fanca-deficient mice [2]; untreated versus Ambroxol treated mice): significantly shorter in untreated mice | proportion of short telomeres respect the total number of telomeres (Fanca-deficient mice [2]; untreated versus treated mice): significantly bigger in untreated mice | percentage of cells in G2/M phase in basal conditions [3]: lowered this percentage | Liver, Light/moderate: Steatosis (Fanca-deficient mice [4]; [5]): 2/10 | Lung, Light/moderate: Pleuritis (Fanca-deficient mice [4]; [5]): 1/10 | Liver, Light/moderate: Vascular congestion (Fanca-deficient mice [4]; [6]): 1/10 | Liver, Severe: Multiple myeloid precursor infiltration (Fanca-deficient mice [4]; [6]): 0/10 | Lung, Light/moderate: BALT activation (Fanca-deficient mice [4]; [6]): 1/10 | Lung, Light/moderate: Fibrosis (Fanca-deficient mice [4]; [6]): 0/10 | Lung, Light/moderate: Interstitial pneumonia (Fanca-deficient mice [4]; [6]): 5/10 | Lung, Severe: General vascular congestion (Fanca-deficient mice [4]; [6]): 0/10 | Lung, Severe: Myeloid-shape cellullar embolism (Fanca-deficient mice [4]; [6]): 0/10 | Lung, Severe: Osseous metaplasia (Fanca-deficient mice [4]; [6]): 0/10 | Spleen, Light/moderate: Lymphoid hyperplasia (Fanca-deficient mice [4]; [6]): 3/10 | Liver, Severe: Vesicular steatosis (Fanca-deficient mice [4]; [7]): 0/10 | Spleen, Severe: Spleen hyperplasia (likely linfoma) (Fanca-deficient mice [4]; [7]): 0/10 | Liver, Light/moderate: Chronic hepatitis (perivascular) (Fanca-deficient mice [4]; affected mice/mice studied, H2O 3/7): 7/10 | severe organ defects (Fanca-deficient mice [4]; end of experiment (1 year)): no severe organ defects

CC(=O)N[C@@H](CS)C(=O)O [NAC, N-acetylcysteine]
telomere length (Fanca-deficient mice [2]; one year of treatment): modest improvement
